Assay results reported in patent US10781229B2, “Tris- or neopentyl glycol-based amphiphiles and uses thereof” (Industry-University Cooperation Foundation Hanyang …, priority 2015, dated 2020).

How the values were obtained:
[1] = molecular target: LeuT E192C^TMR (Aquifex aeolicus, UniProt O67854, E192C); assay: Site-directed fluorescence (iodide) quenching of LeuT E192C-TMR, Stern-Volmer analysis; format: biochemical; settings: for Δ KSV: leucine-induced change of iodide accessibility of TMR, CMC+0.04% by weight detergent, means [s.e.m. interval]; for Ksv when leucine is absent: no leucine, LeuT E192C-TMR in CMC+0.04% by weight detergent
From the text: A principle of this experiment is as follows: A cysteine residue was inserted into a 192th LeuT site (E192C), followed by coupling with a thiol-reactive fluorophore (tetramethylrhodamine-5-maleimide, TMR). The prepared LeuT E192C^TMR, as TMR-coupled LeuT, is an excellent system to sensitively monitor protein structure change in response to ligand coupling. […] Due to such change, TMR fluorescence molecules exposed to an aqueous solution become closer to iodide (I^−), as a quencher dissolved in water, whereby strong fluorescence quenching is caused. TMR quenching intensity by leucine coupling may be represented by Stern-Volmer plotting and thus structural flexibility of a protein may be directly measured. Ligand bindability of the TMR-labeled transporter was measured using SPA while increasing the amount of [^3H]leucine.
In particular, structure, expression, purification, and fluorescence labeling were performed according to the following methods. In accordance with a method disclosed in a paper published by C. B. Billesbolle, et al. (J. Biol. Chem. 2015, 290, 26725-26738), a leucine transporter mutant (LeuT E192C^TMR) was produced and purification and labeling were carried out. In summary, a residue of the E192 was mutated with cysteine using QuikChange (Agilent Technologies) such that fluorescence coupling was accomplished by maleimide labeling. The LeuT mutant was expressed in E. coli C41 (DE3). A membrane of DE3 was disrupted and LeuT was solubilized with 1% (w/v) DDM. Subsequently, LeuT solubilized with the amphipathic molecule was fixed to a Chelating Sepharose Fast Flow resin (GE Healthcare, Little Chalfont, UK), followed by washing with tetramethylrhodamine-5-maleimide (TMR, Life Technologies, Carlsbad, Calif., USA) at 4° C. for 16 hours. Subsequently, LeuT was eluted with a buffer containing 300 mM imidazole, 20 mM Tris-HCl (pH 8.0), 1 mM NaCl, 199 mM KCl, and 0.05% DDM.
Fluorescence spectroscopy was carried out according to the following method. A fluorescence-based experiment was carried out by diluting 0.5 μg ml^−1 of fluorescence-labeled LeuT with buffer A supplemented with CMC+0.04% by weight of DDM, MNG-3 or NDT-C11. Leucine was separately added to specimen aliquots of LeuT for each concentration and incubated for one hour in a room temperature shaker. Steady-state fluorescence intensities were recorded with a FluoroMax4 (Horiba Scientific, Edison, N.J., USA) at λem=572 nm and excitation source at λex=552 nm at 25° C. Quencher-titration was carried out by successive additions of small specimen aliquots containing 1 M KI into buffer A supplemented with 10 mM Na2S2O3. Fluorescence intensities (F) were corrected for sample dilution and normalized to the initial intensity (F0) of a sample. All data was analyzed by linear-(Stern-Volmer plot) or nonlinear regression in GraphPad Prism 6.0 (GraphPad Software). The degree of iodide (I^−) accessibility was obtained from the following Stern-Volmer equation: F0/F=1+Ksv×[Q], where F0/F is normalized fluorescence quenching, Ksv is a Stern-Volmer constant, and [Q] is quencher concentration. When means are calculated as a log, the means are shown as pIC50 and the [s.e.m. interval] from pIC50±s.e.m.
Values of radioligand binding constants were calculated through SPA saturation binding experiments. Values of iodide quenching-response constants and ΔKSV were calculated from a site-directed fluorescence quenching spectroscopy. The affinity (Kd) is shown as means±s.e.m and ΔKSV is shown as means [s.e.m. interval]. All data is shown as means of three to four independent experiments.

[2] = Hydrodynamic radius and size distribution of micelles by dynamic light scattering (DLS); format: physicochemical
Protocol: A method of measuring the radius of a micelle is not specifically limited and may be any method generally known in the art. For example, the radius may be measured by a dynamic light scattering (DLS) experiment.
In particular, critical micellar concentrations (CMCs) were measured using hydrophobic fluorescence staining and diphenylhexatriene (DPH), and hydrodynamic radii (Rh) of micelles formed of each material were measured by a dynamic light scattering (DLS) experiment. Measured results are compared to values of DDM as an existing amphipathic molecule (detergent).
Meanwhile, size distributions of the micelles formed of TDTs and NDTs were measured using DLS. Results are illustrated in FIG. 5. TDTs or NDTs were respectively used in an amount of 0.5% by weight. As a result, micelles of TDTs or NDTs were measured as forming a single community.

[3] = molecular target: T1, melibiose permease (MelB), MelBSt (Salmonella typhimurium, UniProt P30878); assay: MelB extraction efficiency and stability by SDS-PAGE and western immunoblotting; settings: 1.5% by weight, 55° C., 90 minutes
T1 construct: made in house; host or cells: 'Salmonella typhimurium DW2 cell (melB and lacZY)', plasmid pK95AHB/WT MelBSt/CH10
T1 sequence (P30878 whole entry): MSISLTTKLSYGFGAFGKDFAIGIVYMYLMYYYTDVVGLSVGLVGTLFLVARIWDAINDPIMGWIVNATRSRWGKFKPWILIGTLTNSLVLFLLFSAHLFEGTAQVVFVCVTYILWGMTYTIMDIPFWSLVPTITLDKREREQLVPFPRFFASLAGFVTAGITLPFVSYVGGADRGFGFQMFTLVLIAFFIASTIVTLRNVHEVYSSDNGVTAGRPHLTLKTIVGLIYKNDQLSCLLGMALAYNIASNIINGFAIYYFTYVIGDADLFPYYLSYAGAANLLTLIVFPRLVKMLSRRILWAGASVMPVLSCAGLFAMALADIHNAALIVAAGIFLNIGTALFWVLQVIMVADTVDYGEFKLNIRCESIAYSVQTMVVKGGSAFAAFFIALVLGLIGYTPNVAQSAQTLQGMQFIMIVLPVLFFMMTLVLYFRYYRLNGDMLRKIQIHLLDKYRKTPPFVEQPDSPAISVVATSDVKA
Protocol: Experiments to measure the extraction efficiency and structural stability of a Salmonella typhimurium melibiose permease (MelB) protein by TDTs or NDTs were conducted. The MelB protein was extracted using TDTs, NDTs, or DDM and then the amounts and structures of extracted proteins were quantitatively analyzed by SDS-PAGE and western immunoblotting. The concentrations of the used amphipathic molecules were 1.5% by weight. Protein extraction was carried out at four temperatures (0, 45, 55 or 65° C.) for 90 minutes to simultaneously evaluate the protein extraction efficiency and stabilization ability of the amphipathic molecules.
In particular, in accordance with a method disclosed in a paper (P. S. Chae, et al., Chemistry. 2013, 19, 15645-15651) published by the present inventors, a protein (MelBSt) was produced using a pK95AHB/WT MelBSt/CH10 plasmid and a Salmonella typhimurium DW2 cell (melB and lacZY) to encode wild-type MelB having a 10-His tag at a C-terminal. In accordance with a method disclosed in a paper (Nat. Commun. 2014, 5, 3009) published by A. S. Ethayathulla, et al., cell proliferation and membrane preparation was carried out. Protein analysis was performed using a Micro BCA kit (Thermo Scientific, Rockford, Ill.). So as to measure the solubilization/stability of MelBSt, a membrane sample including MelBSt (final protein concentration of 10 mg/mL) was mixed with a solubilization buffer (20 mM sodium phosphate, pH 7.5, 200 mM NaCl, 10% glycerol, and 20 mM melibiose) and 1.5% (w/v) DDM, TDTs or NDTs. An extracted product was incubated at four temperatures (0, 45, 55 and 65° C.) for 90 minutes. Ultracentrifugation was carried out for 45 minutes at 4° C. and 355,590 g by means of a Beckman Optima™ MAX ultracentrifuge and a TLA-100 rotor. Subsequently, 20 μg of a protein was separated by SDS-16% PAGE and then subjected to immunoblotting with a Penta-His-HRP antibody (Qiagen, Germantown, Md.).

With `CCCCCCCCCCCCOC1OC(CO)C(OC2OC(CO)C(O)C(O)C2O)C(O)C1O` [DDM, n-dodecyl-β-D-maltopyranoside, reference compound] the “Δ KSV” value [1] was 1.1 M⁻¹, the “Ksv when leucine is absent” value [1] was “up to 1.6” and the “Rh (hydrodynamic radius of micelles)” value [2] was 3.4 ± 0.0 nm. The “MelB dissolved / solubilization ability” value [3] was “hardly detected”.

For `CCCCCCCCCCCC(CCCCCCCCCCC)COCC(CO[C@@H]1OC(CO)[C@@H](O)C(O)C1O)(CO[C@@H]1OC(CO)[C@@H](O)C(O)C1O)CO[C@@H]1OC(CO)[C@@H](O)C(O)C1O` (stereo partly drawn) [NDT-C11], the “Structural fluidity of the LeuT protein” value ([1]; conclusion from ΔKsv) was “satisfactorily maintains the structural fluidity”, the “Δ KSV” value [1] was 0.9 M⁻¹ and the “Ksv when leucine is absent” value [1] was “up to 2.5”. For the same compound, the “Rh (hydrodynamic radius of micelles)” value [2] was 3.5 ± 0.0 nm and the “MelB dissolved / solubilization ability” value [3] was “most excellent”.
